PubChem BioAssay AID1918933 (Molecular Pharmacology Branch, DTP, NCI, 2023)

Tested on: 186277-243-T-J2-PDC complex spheroid viability
Test: Anticancer human tumor 186277-243-T-J2-PDC patient-derived colon adenocarcinoma cell line growth inhibition
Conditions: for IC50: curve of first compound; for viability, T/C: stronger effect = lower value
Procedure, shortened: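 Multicellular complex spheroids of tumor cells with human endothelial cells (HUVEC) and mesenchymal stem cells; the LSD1 inhibitor iadademstat was combined with standard-of-care or investigational agents. Top concentration at or near clinical Cmax, half-log dilutions; final DMSO ≤0.25%.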

[1] = second compound 0.1 µM, first compound 0.000316 µM
[2] = second compound 0.1 µM, first compound 0.001 µM
[3] = second compound 0.1 µM, first compound 0.00316 µM
[4] = second compound 0.1 µM, first compound 0.01 µM
[5] = second compound 0.1 µM, first compound 0.0316 µM
[6] = second compound 0.1 µM, first compound 0.1 µM
[7] = second compound 0.316 µM, first compound 0.000316 µM
[8] = second compound 0.316 µM, first compound 0.001 µM
[9] = second compound 0.316 µM, first compound 0.00316 µM
[10] = second compound 0.316 µM, first compound 0.01 µM
[11] = second compound 0.316 µM, first compound 0.0316 µM
[12] = second compound 0.316 µM, first compound 0.1 µM
[13] = second compound 1 µM, first compound 0.000316 µM
[14] = second compound 1 µM, first compound 0.001 µM
[15] = second compound 1 µM, first compound 0.00316 µM
[16] = second compound 1 µM, first compound 0.01 µM
[17] = second compound 1 µM, first compound 0.0316 µM
[18] = second compound 1 µM, first compound 0.1 µM
[19] = second compound 3.16 µM, first compound 0.000316 µM
[20] = second compound 3.16 µM, first compound 0.001 µM
[21] = second compound 3.16 µM, first compound 0.00316 µM
[22] = second compound 3.16 µM, first compound 0.01 µM
[23] = second compound 3.16 µM, first compound 0.0316 µM
[24] = second compound 3.16 µM, first compound 0.1 µM
[25] = second compound 10 µM, first compound 0.000316 µM
[26] = second compound 10 µM, first compound 0.001 µM
[27] = second compound 10 µM, first compound 0.00316 µM
[28] = second compound 10 µM, first compound 0.01 µM
[29] = second compound 10 µM, first compound 0.0316 µM
[30] = second compound 10 µM, first compound 0.1 µM
[31] = second compound 0.1 µM, first compound 0.00949 µM
[32] = second compound 0.1 µM, first compound 0.03 µM
[33] = second compound 0.1 µM, first compound 0.0949 µM
[34] = second compound 0.1 µM, first compound 0.3 µM
[35] = second compound 0.316 µM, first compound 0.00949 µM
[36] = second compound 0.316 µM, first compound 0.03 µM
[37] = second compound 0.316 µM, first compound 0.0949 µM
[38] = second compound 0.316 µM, first compound 0.3 µM
[39] = second compound 1 µM, first compound 0.00949 µM
[40] = second compound 1 µM, first compound 0.03 µM
[41] = second compound 1 µM, first compound 0.0949 µM
[42] = second compound 1 µM, first compound 0.3 µM
[43] = second compound 3.16 µM, first compound 0.00949 µM
[44] = second compound 3.16 µM, first compound 0.03 µM
[45] = second compound 3.16 µM, first compound 0.0949 µM
[46] = second compound 3.16 µM, first compound 0.3 µM
[47] = second compound 10 µM, first compound 0.00949 µM
[48] = second compound 10 µM, first compound 0.03 µM
[49] = second compound 10 µM, first compound 0.0949 µM
[50] = second compound 10 µM, first compound 0.3 µM
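Also: 7 day exposure to compounds.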
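For viability, T/C in this document: 100% = DMSO vehicle control viability.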

CC(C)CC(NC(=O)C(Cc1ccccc1)NC(=O)c1cnccn1)B(O)O (stereo not given) + NC1CC1c1ccc(-c2cccc(O)c2)cc1
IC50 (second compound 0.1 µM): 0.601 nM
IC50 (second compound 0.316 µM): 0.547 nM
IC50 (second compound 1 µM): 0.548 nM
IC50 (second compound 3.16 µM): 0.57 nM
IC50 (second compound 10 µM): 0.557 nM
viability, T/C [1]: 108%
viability, T/C [2]: 3.98%
viability, T/C [3]: 0.06%
viability, T/C [4]: 0.02%
viability, T/C [5]: 0.02%
viability, T/C [6]: 0.12%
viability, T/C [7]: 94.1%
viability, T/C [8]: 1.53%
viability, T/C [9]: 0.04%
viability, T/C [10]: 0.01%
viability, T/C [11]: 0.37%
viability, T/C [12]: 0.1%
viability, T/C [13]: 94.3%
viability, T/C [14]: 1.48%
viability, T/C [15]: 0.05%
viability, T/C [16]: 0.02%
viability, T/C [17]: 0.07%
viability, T/C [18]: 0.1%
viability, T/C [19]: 101%
viability, T/C [20]: 1.66%
viability, T/C [21]: 0.06%
viability, T/C [22]: 0.02%
viability, T/C [23]: 0.64%
viability, T/C [24]: 0.74%
viability, T/C [25]: 97.9%
viability, T/C [26]: 0.65%
viability, T/C [27]: 0.13%
viability, T/C [28]: 0.2%
viability, T/C [29]: 0.13%
viability, T/C [30]: 0.89%

CC(C)CC(NC(=O)CNC(=O)c1cc(Cl)ccc1Cl)B1OC(=O)CC(CC(=O)O)(C(=O)O)O1 (stereo not given) + NC1CC1c1ccc(-c2cccc(O)c2)cc1
IC50 (second compound 0.1 µM): 10.5 nM
IC50 (second compound 0.316 µM): 11 nM
IC50 (second compound 1 µM): 10.7 nM
IC50 (second compound 3.16 µM): 10.6 nM
IC50 (second compound 10 µM): 7.75 nM
viability, T/C [1]: 110%
viability, T/C [2]: 95.8%
viability, T/C [3]: 111%
viability, T/C [4]: 51.9%
viability, T/C [5]: 6.34%
viability, T/C [6]: 0.22%
viability, T/C [7]: 110%
viability, T/C [8]: 111%
viability, T/C [9]: 111%
viability, T/C [10]: 54.3%
viability, T/C [11]: 1.86%
viability, T/C [12]: 0.17%
viability, T/C [13]: 110%
viability, T/C [14]: 111%
viability, T/C [15]: 116%
viability, T/C [16]: 53.2%
viability, T/C [17]: 1.62%
viability, T/C [18]: 0.2%
viability, T/C [19]: 111%
viability, T/C [20]: 117%
viability, T/C [21]: 110%
viability, T/C [22]: 52.6%
viability, T/C [23]: 1.26%
viability, T/C [24]: 0.43%
viability, T/C [25]: 117%
viability, T/C [26]: 114%
viability, T/C [27]: 100%
viability, T/C [28]: 36.1%
viability, T/C [29]: 0.83%
viability, T/C [30]: 0.22%

CCc1c2c(nc3ccc(O)cc13)-c1cc3c(c(=O)n1C2)COC(=O)[C@]3(O)CC + NC1CC1c1ccc(-c2cccc(O)c2)cc1
IC50 (second compound 0.1 µM): < 0.949 nM
IC50 (second compound 0.316 µM): < 0.949 nM
IC50 (second compound 1 µM): < 0.949 nM
IC50 (second compound 3.16 µM): < 0.949 nM
IC50 (second compound 10 µM): < 0.949 nM
viability, T/C (second compound 0.1 µM, first compound 0.000949 µM): 41.8%
viability, T/C (second compound 0.1 µM, first compound 0.003 µM): 30.3%
viability, T/C [31]: 21.5%
viability, T/C [32]: 3.91%
viability, T/C [33]: 1.18%
viability, T/C [34]: 0.24%
viability, T/C (second compound 0.316 µM, first compound 0.000949 µM): 43.1%
viability, T/C (second compound 0.316 µM, first compound 0.003 µM): 29.9%
viability, T/C [35]: 22.4%
viability, T/C [36]: 3.45%
viability, T/C [37]: 0.15%
viability, T/C [38]: 0.17%
viability, T/C (second compound 1 µM, first compound 0.000949 µM): 42.2%
viability, T/C (second compound 1 µM, first compound 0.003 µM): 28.3%
viability, T/C [39]: 24.3%
viability, T/C [40]: 3.43%
viability, T/C [41]: 0.22%
viability, T/C [42]: 0.17%
viability, T/C (second compound 3.16 µM, first compound 0.000949 µM): 42.7%
viability, T/C (second compound 3.16 µM, first compound 0.003 µM): 29%
viability, T/C [43]: 24%
viability, T/C [44]: 3.34%
viability, T/C [45]: 0.22%
viability, T/C [46]: 0.16%
viability, T/C (second compound 10 µM, first compound 0.000949 µM): 35.4%
viability, T/C (second compound 10 µM, first compound 0.003 µM): 23.4%
viability, T/C [47]: 17.3%
viability, T/C [48]: 1.73%
viability, T/C [49]: 0.19%
viability, T/C [50]: 0.23%

Nc1ccccc1NC(=O)c1ccc(CNC(=O)OCc2cccnc2)cc1 + NC1CC1c1ccc(-c2cccc(O)c2)cc1
IC50 (second compound 0.1 µM): 596 nM
IC50 (second compound 0.316 µM): 570 nM
IC50 (second compound 1 µM): 585 nM
IC50 (second compound 3.16 µM): 563 nM
IC50 (second compound 10 µM): 514 nM
viability, T/C [31]: 93.8%
viability, T/C [32]: 104%
viability, T/C [33]: 91.6%
viability, T/C [34]: 98.6%
viability, T/C (second compound 0.1 µM, first compound 0.949 µM): 18.1%
viability, T/C (second compound 0.1 µM, first compound 3 µM): 1.51%
viability, T/C [35]: 99.6%
viability, T/C [36]: 99.6%
viability, T/C [37]: 108%
viability, T/C [38]: 93.5%
viability, T/C (second compound 0.316 µM, first compound 0.949 µM): 15.4%
viability, T/C (second compound 0.316 µM, first compound 3 µM): 0.84%
viability, T/C [39]: 98.8%
viability, T/C [40]: 94.1%
viability, T/C [41]: 98.8%
viability, T/C [42]: 94.7%
viability, T/C (second compound 1 µM, first compound 0.949 µM): 17.7%
viability, T/C (second compound 1 µM, first compound 3 µM): 0.9%
viability, T/C [43]: 99.8%
viability, T/C [44]: 110%
viability, T/C [45]: 109%
viability, T/C [46]: 87.9%
viability, T/C (second compound 3.16 µM, first compound 0.949 µM): 18.5%
viability, T/C (second compound 3.16 µM, first compound 3 µM): 1.44%
viability, T/C [47]: 96.2%
viability, T/C [48]: 97.3%
viability, T/C [49]: 104%
viability, T/C [50]: 83.3%
viability, T/C (second compound 10 µM, first compound 0.949 µM): 11.8%
viability, T/C (second compound 10 µM, first compound 3 µM): 1.02%

O=C(c1cc(Cc2n[nH]c(=O)c3ccccc23)ccc1F)N1CCN(C(=O)C2CC2)CC1 + NC1CC1c1ccc(-c2cccc(O)c2)cc1
IC50 (second compound 0.1 µM): > 10000 nM
IC50 (second compound 0.316 µM): > 10000 nM
IC50 (second compound 1 µM): > 10000 nM
IC50 (second compound 3.16 µM): > 10000 nM
IC50 (second compound 10 µM): > 10000 nM
viability, T/C [5]: 98.8%
viability, T/C [6]: 89.7%
viability, T/C (second compound 0.1 µM, first compound 0.316 µM): 95.4%
viability, T/C (second compound 0.1 µM, first compound 1 µM): 103%
viability, T/C (second compound 0.1 µM, first compound 3.16 µM): 122%
viability, T/C (second compound 0.1 µM, first compound 10 µM): 107%
viability, T/C [11]: 101%
viability, T/C [12]: 101%
viability, T/C (second compound 0.316 µM, first compound 0.316 µM): 110%
viability, T/C (second compound 0.316 µM, first compound 1 µM): 92.6%
viability, T/C (second compound 0.316 µM, first compound 3.16 µM): 121%
viability, T/C (second compound 0.316 µM, first compound 10 µM): 98.5%
viability, T/C [17]: 106%
viability, T/C [18]: 92.7%
viability, T/C (second compound 1 µM, first compound 0.316 µM): 97.4%
viability, T/C (second compound 1 µM, first compound 1 µM): 95.1%
viability, T/C (second compound 1 µM, first compound 3.16 µM): 120%
viability, T/C (second compound 1 µM, first compound 10 µM): 106%
viability, T/C [23]: 84.6%
viability, T/C [24]: 101%
viability, T/C (second compound 3.16 µM, first compound 0.316 µM): 95.8%
viability, T/C (second compound 3.16 µM, first compound 1 µM): 103%
viability, T/C (second compound 3.16 µM, first compound 3.16 µM): 115%
viability, T/C (second compound 3.16 µM, first compound 10 µM): 108%
viability, T/C [29]: 87.9%
viability, T/C [30]: 92%
viability, T/C (second compound 10 µM, first compound 0.316 µM): 93.8%
viability, T/C (second compound 10 µM, first compound 1 µM): 85.4%
viability, T/C (second compound 10 µM, first compound 3.16 µM): 120%
viability, T/C (second compound 10 µM, first compound 10 µM): 98.5%
